{"source": "patent US9872847B2", "about": "(priority 2013, dated 2018)", "key": {"Harmaline-induced tremor": {"tested_on": "Harmaline-induced tremor", "assay": "animal or person", "type": "in vivo, male Sprague-Dawley rats", "details": "po; for ED50 / inhibition in vivo at 100 mg/kg / inhibition in vivo at 130 mg/kg: Rattus norvegicus; for On-set time Mean ± S.E.M. / On-set time Median / Tremor score Mean ± S.E.M. / Tremor score Median: rat, in vivo; for inhibition in vivo at 100 mg/kg / inhibition in vivo at 130 mg/kg: 0.5 h, read-out: Protection % (percentage of activity compared to the vehicle only)"}, "[1]": {"tested_on": "motor abilities on the Rotarod", "assay": "Neurotoxicity (Rotarod)", "type": "in vivo", "details": "protective index, mice", "description": "The measurement of neurotoxicity of the test compounds was conducted by the method of Dunham and Miya [Dunham, N. W. and Miya, T. S. 1957. A note on a simple apparatus for detecting neurological deficit in rats and mice. J. Am. Pharm. Assoc. (Baltimore) 46: 208˜209]. In the method, motor abilities of the test animals can be determined by observing whether the test animals can walk without falling from a rotator, thereby determining the value of neurotoxicity of each compound. […] They were pre-trained on the rotarod (Rotarod; Columbus instrument, rota-max, USA) at 6 rpm for 5 min 24 hr prior to the test. The peak time was determined by administration test material's random dose for 0.5, 1, 2, 4 hour. […] The ratio of TD50 to ED50 (TD50/ED50) is called as a protective index, and useful as a parameter for comparison of pharmaceutical efficacy and neurotoxicity."}, "[2]": {"tested_on": "MES (electrical stimulus) seizure", "assay": "animal or person", "type": "in vivo, male ICR mice", "details": "for Protection % (percentage of activity compared to the vehicle only): mouse, in vivo"}}, "data": [{"compound": "C[C@H](OC(N)=O)[C@@H](O)c1ccccc1Cl", "note": "[Compound 1, 1-(2-chlorophenyl)-(S)-1-hydroxypropyl-(S)-2-carbamate]", "values": [{"measurement": "ED50", "setting": "Harmaline-induced tremor", "value": 12.9, "unit": "mg/kg"}, {"measurement": "On-set time Mean ± S.E.M.", "setting": "Harmaline-induced tremor; 5 mg/kg", "value": "243 ± 7", "unit": "s"}, {"measurement": "On-set time Median", "setting": "Harmaline-induced tremor; 5 mg/kg", "value": 250, "unit": "s"}, {"measurement": "Tremor score Mean ± S.E.M.", "setting": "Harmaline-induced tremor; 5 mg/kg", "value": "4.8 ± 0.5"}, {"measurement": "Tremor score Median", "setting": "Harmaline-induced tremor; 5 mg/kg", "value": 5.0}, {"measurement": "On-set time Mean ± S.E.M.", "setting": "Harmaline-induced tremor; 10 mg/kg", "value": "289 ± 19", "unit": "s"}, {"measurement": "On-set time Median", "setting": "Harmaline-induced tremor; 10 mg/kg", "value": 265, "unit": "s"}, {"measurement": "Tremor score Mean ± S.E.M.", "setting": "Harmaline-induced tremor; 10 mg/kg", "value": "3.6 ± 0.6"}, {"measurement": "Tremor score Median", "setting": "Harmaline-induced tremor; 10 mg/kg", "value": 2.5}, {"measurement": "On-set time Mean ± S.E.M.", "setting": "Harmaline-induced tremor; 20 mg/kg", "value": "367 ± 21", "unit": "s"}, {"measurement": "On-set time Median", "setting": "Harmaline-induced tremor; 20 mg/kg", "value": 375, "unit": "s"}, {"measurement": "Tremor score Mean ± S.E.M.", "setting": "Harmaline-induced tremor; 20 mg/kg", "value": "1.8 ± 0.1"}, {"measurement": "Tremor score Median", "setting": "Harmaline-induced tremor; 20 mg/kg", "value": 1.8}]}, {"compound": "CC(C)[C@H](OC(N)=O)[C@@H](O)c1c(Cl)cccc1Cl", "note": "[Compound 42, 1-(2,6-dichlorophenyl)-(S)-1-hydroxy-3-methyl-butyl-(S)-2-carbamate]", "values": [{"measurement": "inhibition in vivo at 100 mg/kg", "setting": "Harmaline-induced tremor", "value": 71.7, "unit": "%"}]}, {"compound": "CC(OC(N)=O)C(O)c1ccccc1Cl", "note": "(racemic) [Compound 3, 1-(2-chlorophenyl)-1-hydroxypropyl-2-carbamate]", "values": [{"measurement": "PI(TD50/ED50 in MES)", "setting": "[1]", "value": 12.0}, {"measurement": "inhibition in vivo at 130 mg/kg", "setting": "Harmaline-induced tremor", "value": 75, "unit": "%"}]}, {"compound": "C[C@H](OC(N)=O)[C@@H](O)c1c(Cl)cccc1Cl", "note": "[Compound 37, 1-(2,6-dichlorophenyl)-(S)-1-hydroxypropyl-(S)-2-carbamate]", "values": [{"measurement": "PI(TD50/ED50 in MES)", "setting": "[1]", "value": 5.1}, {"measurement": "inhibition in vivo at 130 mg/kg", "setting": "Harmaline-induced tremor", "value": 91.7, "unit": "%"}]}, {"compound": "C[C@@H](OC(N)=O)[C@@H](O)c1ccccc1Cl", "note": "[Compound 4, 1-(2-chlorophenyl)-(S)-1-hydroxypropyl-(R)-2-carbamate]", "values": [{"measurement": "inhibition in vivo at 100 mg/kg", "setting": "Harmaline-induced tremor", "value": 66.7, "unit": "%"}]}, {"compound": "CC[C@H](OC(N)=O)[C@@H](O)c1ccccc1I", "note": "[Compound 67, 1-(2-iodophenyl)-(S)-1-hydroxybutyl-(S)-2-carbamate]", "values": [{"measurement": "inhibition in vivo at 100 mg/kg", "setting": "Harmaline-induced tremor", "value": 83.3, "unit": "%"}]}, {"compound": "CC[C@H](OC(N)=O)[C@@H](O)c1ccc(Cl)cc1Cl", "note": "[Compound 39, 1-(2,4-dichlorophenyl)-(S)-1-hydroxybutyl-(S)-2-carbamate]", "values": [{"measurement": "inhibition in vivo at 130 mg/kg", "setting": "Harmaline-induced tremor", "value": 66.7, "unit": "%"}]}, {"compound": "C[C@H](OC(N)=O)[C@H](O)c1ccccc1Cl", "note": "[Compound 5, 1-(2-chlorophenyl)-(R)-1-hydroxypropyl-(S)-2-carbamate]", "values": [{"measurement": "PI(TD50/ED50 in MES)", "setting": "[1]", "value": 3.3}]}, {"compound": "CCCNC(=O)O[C@H](C)[C@H](O)c1ccccc1Cl", "note": "(racemic) [Compound 30, 1-(2-chlorophenyl)-1-hydroxypropyl-2-propylcarbamate]", "values": [{"measurement": "Protection % (percentage of activity compared to the vehicle only)", "setting": "[2]", "value": "200 ^a(25%)"}]}, {"compound": "C[C@@H](OC(N)=O)[C@H](O)c1c(Cl)cccc1Cl", "note": "[Compound 46, 1-(2,6-dichlorophenyl)-(R)-1-hydroxypropyl-(R)-2-carbamate]", "values": [{"measurement": "inhibition in vivo at 100 mg/kg", "setting": "Harmaline-induced tremor", "value": 58.3, "unit": "%"}]}, {"compound": "C[C@H](OC(N)=O)[C@@H](O)c1ccccc1F", "note": "[Compound 63, 1-(2-fluorophenyl)-(S)-1-hydroxypropyl-(S)-2-carbamate]", "values": [{"measurement": "inhibition in vivo at 100 mg/kg", "setting": "Harmaline-induced tremor", "value": 83.3, "unit": "%"}]}, {"compound": "CC[C@H](OC(N)=O)[C@@H](O)c1ccccc1Cl", "note": "[Compound 6, 1-(2-chlorophenyl)-(S)-1-hydroxybutyl-(S)-2-carbamate]", "values": [{"measurement": "inhibition in vivo at 130 mg/kg", "setting": "Harmaline-induced tremor", "value": 75, "unit": "%"}]}, {"compound": "C[C@@H](OC(N)=O)[C@H](O)c1ccccc1Cl", "note": "[Compound 2, 1-(2-chlorophenyl)-(R)-1-hydroxypropyl-(R)-2-carbamate]", "values": [{"measurement": "PI(TD50/ED50 in MES)", "setting": "[1]", "value": 7.3}, {"measurement": "inhibition in vivo at 130 mg/kg", "setting": "Harmaline-induced tremor", "value": 66.7, "unit": "%"}]}, {"compound": "C[C@H](OC(=O)NC1CC1)[C@@H](O)c1ccccc1Cl", "note": "[Compound 25, 1-(2-chlorophenyl)-(R)-1-hydroxypropyl-(R)-2-N-cyclopropylcarbamate]", "values": [{"measurement": "responders at 200 mg/kg", "setting": "[2]; Mus musculus, po, read-out: Protection % (percentage of activity compared to the vehicle only)", "value": 25, "unit": "%"}]}, {"compound": "C[C@H](OC(N)=O)[C@@H](O)c1cccc(Cl)c1Cl", "note": "[Compound 38, 1-(2,3-dichlorophenyl)-(S)-1-hydroxypropyl-(S)-2-carbamate]", "values": [{"measurement": "inhibition in vivo at 100 mg/kg", "setting": "Harmaline-induced tremor", "value": 55, "unit": "%"}]}, {"compound": "C[C@H](OC(N)=O)[C@@H](O)c1ccccc1I", "note": "[Compound 65, 1-(2-iodophenyl)-(S)-1-hydroxypropyl-(S)-2-carbamate]", "values": [{"measurement": "ED50", "setting": "Harmaline-induced tremor", "value": 19.2, "unit": "mg/kg"}]}, {"compound": "CC(C)[C@H](OC(N)=O)[C@@H](O)c1ccccc1Cl", "note": "[Compound 9, 1-(2-chlorophenyl)-(S)-1-hydroxy-3-methyl-butyl-(S)-2-carbamate]", "values": [{"measurement": "inhibition in vivo at 130 mg/kg", "setting": "Harmaline-induced tremor", "value": 58.3, "unit": "%"}]}, {"compound": "CCCNC(=O)O[C@@H](C)[C@@H](O)c1ccccc1Cl", "note": "[Compound 16, 1-(2-chlorophenyl)-(S)-1-hydroxypropyl-(S)-2-N-propylcarbamate]", "values": [{"measurement": "Protection % (percentage of activity compared to the vehicle only)", "setting": "[2]", "value": "200 ^a(25%)"}]}, {"compound": "C[C@H](OC(N)=O)[C@@H](O)c1ccc(Cl)cc1Cl", "note": "[Compound 36, 1-(2,4-dichlorophenyl)-(S)-1-hydroxypropyl-(S)-2-carbamate]", "values": [{"measurement": "inhibition in vivo at 130 mg/kg", "setting": "Harmaline-induced tremor", "value": 83.3, "unit": "%"}]}]}
